This note sets out measurements from ChEMBL document CHEMBL5038679, “Fluoroalkylation of Dextromethorphan Improves CNS Exposure and Metabolic Stability” (ACS Med Chem Lett, 2022).

SMILES strings stand for the structures. Converted amounts (≈) assume the structure as drawn.

The nature of data set [1]: in vitro. To be noted: dog, MDCK-MDR1.
Description: Apparent permeability in dog MDCK-MDR1 cells from basal to apical side measured after 30 to 120 mins by LC-MS analysis
Data set [2] is described as follows: Efflux ratio of apparent permeability across basolateral to apical side over apical to basolateral side in dog MDCK-MDR1 cells measured after 30 to 120 mins by LC-MS analysis. In kind it is ADME, cell-based, Canis lupus familiaris. To be noted: time 30-120 min.
A short description of data set [3]: in vitro. To be noted: human, liver microsomes. (Liver microsomes are vesicles of endoplasmic reticulum, rich in cytochrome P450 enzymes.)
Data set [4] deals with Sigma intracellular receptor 2 (Homo sapiens, UniProt Q5BJF2). Description: Displacement of […] from sigma-2 receptor (unknown origin) expressed in HEK cell membrane incubated for 2 hrs by liquid scintillation counter analysis.
Data set [5] can be described thus: Aqueous solubility of compound in universal buffer at pH 7.4 at 100 uM incubated for 1.5 hrs under shaking condition by LC-MS/MS analysis. The class given is physicochemical.
Data set [6] deals with Glutamate [NMDA] receptor. The experiment in a line: Displacement of […] from NMDA receptor (unknown origin) expressed in HEK cell membrane incubated for 2 hrs by liquid scintillation counter analysis. (In general: In a radioligand displacement assay an active substance lowers the binding of a labelled ligand.)
Data set [7] can be described thus: Stability in human liver microsomes assessed as half life at 10 uM measured upto 120 mins by LC-MS/MS analysis. In kind it is ADME, Microsome.
A short description of data set [8]: in vitro. To be noted: dog, MDCK-MDR1. The source holds these as a separate data set.
Description: Apparent permeability in dog MDCK-MDR1 cells from apical to basal side measured after 30 to 120 mins by LC-MS analysis
A short description of data set [9]: Aqueous solubility of compound in universal buffer at pH 3 at 100 uM incubated for 1.5 hrs under shaking condition by LC-MS/MS analysis. In kind it is physicochemical.
In data set [10] the target is Sigma non-opioid intracellular receptor 1 (Homo sapiens, UniProt Q99720). Description: Displacement of […] from sigma-1 receptor (unknown origin) expressed in HEK cell membrane incubated for 2 hrs by liquid scintillation counter analysis.
Data set [11] addresses T1, Sodium-dependent noradrenaline transporter (Homo sapiens, UniProt P23975). The experiment in a line: Displacement of […] from NET (unknown origin) expressed in HEK cell membrane incubated for 2 hrs by liquid scintillation counter analysis.
Data set [12] has as its target T2, Sodium-dependent serotonin transporter (Homo sapiens, UniProt P31645). The experiment in a line: biochemical. The class given is cell-based, HEK.
Description: Displacement of [3H]-Citalopram from SERT receptor (unknown origin) expressed in HEK cell membrane incubated for 2 hrs by liquid scintillation counter analysis
The target in data set [13] is T1, Sodium-dependent noradrenaline transporter. Description: Inhibition of human NET expressed in human HEK293 cells assessed as inhibition of substrate transport measured after 1 hr by flourescence based plate reader assay. In kind it is cell-based.
A further data set concerns the target hERG (KCNH2) (Homo sapiens, UniProt Q12809). Description: Inhibition of human ERG at 10 uM measured after 15 mins by plate reader method relative to control. In kind it is toxicity.
Data set [14] deals with T2, Sodium-dependent serotonin transporter. In kind it is cell-based, HEK293.
Data set [15] can be described thus: Clearance in Sprague-Dawley rat plasma at 2.5 mg/kg, po measured after 24 hrs by LC-MS/MS analysis. The class given is ADME, organism-based.
Data set [16] is described as follows: Cmax in Sprague-Dawley rat plasma at 2.5 mg/kg, po measured after 24 hrs by LC-MS/MS analysis. In kind it is ADME, organism-based. On the set-up: route oral, dose 2.5 mg/kg, time 24 hrs.
A short description of data set [17]: Cmax in Sprague-Dawley rat brain at 2.5 mg/kg, po measured after 24 hrs by LC-MS/MS analysis. The class given is ADME, organism-based. Also on record: route oral, time 24 hrs, dose 2.5 mg/kg.
A short description of data set [18]: Half life in Sprague-Dawley rat brain at 2.5 mg/kg, po measured after 24 hrs by LC-MS/MS analysis. The class given is ADME, organism-based.
The nature of data set [19]: Unbound brain-to-plasma concentration ratio in Sprague-Dawley rat. In kind it is ADME, cell-free. To be noted: read-out: K(p,uu,brain).
Data set [20] can be described thus: AUC in Sprague-Dawley rat brain at 2.5 mg/kg, po measured after 24 hrs by LC-MS/MS analysis. The class given is ADME, organism-based. On the set-up: route oral, time 24 hrs, dose 2.5 mg/kg.
Data set [21] can be described thus: AUC in Sprague-Dawley rat plasma at 2.5 mg/kg, po measured after 24 hrs by LC-MS/MS analysis. In kind it is ADME, organism-based. Also on record: route oral, time 24 hrs, dose 2.5 mg/kg.
The nature of data set [22]: Half life in Sprague-Dawley rat plasma at 2.5 mg/kg, po measured after 24 hrs by LC-MS/MS analysis. In kind it is ADME, organism-based.

T2 sequence (P31645 whole entry): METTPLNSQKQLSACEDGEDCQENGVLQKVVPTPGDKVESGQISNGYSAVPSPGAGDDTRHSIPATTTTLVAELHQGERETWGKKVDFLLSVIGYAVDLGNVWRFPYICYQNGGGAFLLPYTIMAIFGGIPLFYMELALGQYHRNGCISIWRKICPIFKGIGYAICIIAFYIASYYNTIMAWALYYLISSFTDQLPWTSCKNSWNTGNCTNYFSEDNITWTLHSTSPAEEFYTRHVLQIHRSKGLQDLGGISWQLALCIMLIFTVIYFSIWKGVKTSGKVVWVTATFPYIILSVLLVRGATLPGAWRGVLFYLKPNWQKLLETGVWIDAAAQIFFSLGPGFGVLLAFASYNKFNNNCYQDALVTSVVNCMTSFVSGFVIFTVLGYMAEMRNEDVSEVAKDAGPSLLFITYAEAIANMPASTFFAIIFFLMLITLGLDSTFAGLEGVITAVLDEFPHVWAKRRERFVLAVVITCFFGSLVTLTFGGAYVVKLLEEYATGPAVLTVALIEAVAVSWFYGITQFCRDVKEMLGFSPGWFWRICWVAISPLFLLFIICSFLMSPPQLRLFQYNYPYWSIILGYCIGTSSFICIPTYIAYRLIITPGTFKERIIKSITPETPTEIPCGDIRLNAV
Sigma intracellular receptor 2, sequence (Q5BJF2 whole entry): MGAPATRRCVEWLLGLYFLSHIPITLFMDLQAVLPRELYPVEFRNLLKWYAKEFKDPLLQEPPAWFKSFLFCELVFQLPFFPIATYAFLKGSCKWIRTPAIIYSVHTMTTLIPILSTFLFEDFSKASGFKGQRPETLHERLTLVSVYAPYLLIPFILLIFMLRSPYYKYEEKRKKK
Sigma non-opioid intracellular receptor 1, sequence (Q99720 whole entry): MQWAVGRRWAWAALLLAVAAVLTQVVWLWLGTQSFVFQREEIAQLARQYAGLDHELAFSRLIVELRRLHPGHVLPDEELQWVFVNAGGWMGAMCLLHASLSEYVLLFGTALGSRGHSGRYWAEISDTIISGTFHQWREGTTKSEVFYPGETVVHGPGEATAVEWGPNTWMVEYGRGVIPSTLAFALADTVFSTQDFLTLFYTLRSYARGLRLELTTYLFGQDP
T1 sequence (P23975 whole entry): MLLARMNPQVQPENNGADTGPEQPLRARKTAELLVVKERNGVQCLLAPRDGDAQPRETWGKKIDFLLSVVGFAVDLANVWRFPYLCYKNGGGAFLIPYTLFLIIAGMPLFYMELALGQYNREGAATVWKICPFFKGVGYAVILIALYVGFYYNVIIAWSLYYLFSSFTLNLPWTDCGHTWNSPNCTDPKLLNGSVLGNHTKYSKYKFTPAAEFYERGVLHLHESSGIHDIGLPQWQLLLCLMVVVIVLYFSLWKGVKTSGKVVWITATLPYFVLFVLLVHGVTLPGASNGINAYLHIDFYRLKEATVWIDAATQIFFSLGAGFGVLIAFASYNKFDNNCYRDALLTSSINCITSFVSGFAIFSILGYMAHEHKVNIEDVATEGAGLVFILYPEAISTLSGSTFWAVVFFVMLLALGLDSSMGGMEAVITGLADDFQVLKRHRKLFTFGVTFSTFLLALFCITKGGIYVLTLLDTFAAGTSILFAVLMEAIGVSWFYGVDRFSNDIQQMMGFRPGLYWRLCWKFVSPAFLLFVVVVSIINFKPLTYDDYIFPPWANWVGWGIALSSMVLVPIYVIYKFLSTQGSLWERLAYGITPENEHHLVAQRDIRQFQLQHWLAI
hERG (KCNH2), sequence (Q12809 whole entry): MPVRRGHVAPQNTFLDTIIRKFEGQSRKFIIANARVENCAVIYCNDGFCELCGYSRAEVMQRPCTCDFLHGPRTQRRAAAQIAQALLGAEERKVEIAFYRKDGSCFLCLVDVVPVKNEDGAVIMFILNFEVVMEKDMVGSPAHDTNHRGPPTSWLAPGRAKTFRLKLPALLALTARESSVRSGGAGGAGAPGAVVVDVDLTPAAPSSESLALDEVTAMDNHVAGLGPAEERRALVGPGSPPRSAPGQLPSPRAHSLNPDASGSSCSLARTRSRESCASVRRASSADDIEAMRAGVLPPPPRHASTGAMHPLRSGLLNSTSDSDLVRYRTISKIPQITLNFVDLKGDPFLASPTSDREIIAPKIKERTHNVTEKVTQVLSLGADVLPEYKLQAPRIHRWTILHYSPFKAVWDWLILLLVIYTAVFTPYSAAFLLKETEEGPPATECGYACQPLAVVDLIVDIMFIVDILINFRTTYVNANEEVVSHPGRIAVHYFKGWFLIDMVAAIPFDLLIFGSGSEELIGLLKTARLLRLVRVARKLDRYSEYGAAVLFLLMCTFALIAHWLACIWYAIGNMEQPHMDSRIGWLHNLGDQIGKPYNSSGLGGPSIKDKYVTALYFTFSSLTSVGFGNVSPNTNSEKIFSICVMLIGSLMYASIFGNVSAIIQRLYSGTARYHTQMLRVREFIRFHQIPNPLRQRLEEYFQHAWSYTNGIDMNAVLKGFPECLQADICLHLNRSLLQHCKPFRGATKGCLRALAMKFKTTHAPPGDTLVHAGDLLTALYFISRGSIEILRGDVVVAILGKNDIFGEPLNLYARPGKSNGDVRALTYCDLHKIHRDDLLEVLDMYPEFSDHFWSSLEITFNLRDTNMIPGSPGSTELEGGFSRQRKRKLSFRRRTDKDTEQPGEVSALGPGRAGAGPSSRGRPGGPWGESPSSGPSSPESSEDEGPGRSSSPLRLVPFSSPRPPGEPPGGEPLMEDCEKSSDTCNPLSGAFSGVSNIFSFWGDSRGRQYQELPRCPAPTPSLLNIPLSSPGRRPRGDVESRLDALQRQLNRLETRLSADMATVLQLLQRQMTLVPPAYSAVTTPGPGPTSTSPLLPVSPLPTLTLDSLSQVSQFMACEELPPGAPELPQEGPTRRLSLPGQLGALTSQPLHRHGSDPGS

Broadly, the Papp B→A is how fast a substance crosses the layer from the basolateral side. A word on the efflux ratio: it is the permeability from basolateral to apical divided by that in the opposite direction, in the common usage. In general, CLint scaled refers to the rate of metabolic loss divided by the concentration. Higher therefore signals faster metabolism. Broadly, the Ki is the dissociation constant of the complex between target and ligand, obtained from inhibition or displacement. A high value points to lower affinity. The term solubility denotes the concentration that dissolves in the medium under given conditions. High values mean much dissolved substance, low ones little dissolved substance. As a reminder, the half-life is how long it takes for the measured level to halve. As a reminder, the Papp A→B is how fast a substance crosses the layer from the apical side. For the compound `CN1CC[C@@]23CCCC[C@@H]2[C@@H]1Cc1ccc(C(C)(F)F)cc13`, the Papp B→A in the data set “in vitro [1]” stood at 0.833 ×10⁻⁶ cm/s. In addition, the efflux ratio in data set [2] worked out at 1.09. The CLint scaled at 2 h, 10 µM in “in vitro [3]” amounted to 8.42 mL/min/kg. Also, the Ki in [4] was 0.826 µM; in [6] it was greater than 10 µM; in [10], 0.675 µM; in [11], greater than 10 µM; in [12] it was 0.301 µM. Moreover, the solubility at 1.5 h, 100 µM in data set [5] was greater than 100 µM; in data set [9] it was 90 µM (≈ 27.5 µg/mL). The half-life at 10 µM in data set [7] was found to be 2.47 h. Moreover, in “in vitro [8]”, the Papp A→B came out at 0.763 ×10⁻⁶ cm/s.
Usually IC50 stands for the midpoint of a concentration-inhibition curve. In general, inhibition refers to the change of the read-out against control, counted positive when it falls. Compound `CN1CC[C@@]23CCCC[C@@H]2[C@@H]1Cc1ccc(C(F)(F)F)cc13` displayed a Papp B→A in the data set “in vitro [1]” of 0.915 ×10⁻⁶ cm/s. Besides, the efflux ratio in data set [2] came to 0.75. Moreover, the IC50 in [13] is 1.04 µM; in data set [14], 0.06 µM. The inhibition at 0.25 h, 10 µM at hERG (KCNH2) was 5.1%. In the data set “in vitro [3]”, this compound came in with a CLint scaled at 2 h, 10 µM of 6.48 mL/min/kg. Also, the Ki in data set [4] is 0.885 µM; in data set [6] it was greater than 10 µM; in data set [10], 0.813 µM; in [11], greater than 10 µM; in data set [12], 0.125 µM. Moreover, the solubility at 1.5 h, 100 µM in [5] is greater than 100 µM; in data set [9], 77 µM (≈ 23.8 µg/mL). For the same compound, in data set [7], the half-life at 10 µM is 3.2 h. In “in vitro [8]”, the Papp A→B was determined as 1.22 ×10⁻⁶ cm/s.
Consider `CN1CC[C@@]23CCCC[C@@H]2[C@@H]1Cc1ccc(C(F)(F)C(F)(F)F)cc13`, for which, in “in vitro [1]”, the Papp B→A was found to be 0.833 ×10⁻⁶ cm/s. In [2], the efflux ratio turned out to be 1. In “in vitro [3]”, this compound showed a CLint scaled at 2 h, 10 µM of 14.4 mL/min/kg. Besides, the Ki in data set [4] was 1.4 µM; in data set [6] it was greater than 10 µM; in [10], greater than 10 µM; in data set [11], greater than 10 µM; in [12], greater than 10 µM. The solubility at 1.5 h, 100 µM in [5] is greater than 100 µM; in [9], 77 µM (≈ 27.7 µg/mL). In addition, the half-life at 10 µM in data set [7] worked out at 1.45 h. The compound also displayed an apical-to-basolateral permeability (Papp A→B) in the data set “in vitro [8]” of 0.831 ×10⁻⁶ cm/s.
Usually CL/F stands for clearance divided by bioavailability, as obtained after extravascular dosing. Usually Cmax stands for the maximum level reached in the sampled fluid or tissue. Broadly, the AUC is the area under the concentration-time curve, a measure of exposure. `[2H]C([2H])([2H])Oc1ccc2c(c1)[C@@]13CCCC[C@@H]1[C@@H](C2)N(C([2H])([2H])[2H])CC3` returned a CL/F in data set [15] of 1840 mL/min/kg. The CLint scaled at 2 h, 10 µM in “in vitro [3]” was determined as 4.72 mL/min/kg. Also, the solubility at 1.5 h, 100 µM came to 112 µM (≈ 31.1 µg/mL) in data set [5] and 95.5 µM (≈ 26.5 µg/mL) in data set [9]. The Cmax in data set [16] turned out to be 5.5 ng/mL; in data set [17], 53.1 ng/mL. Further, the half-life in [18] was 4.9 h; in data set [22] it was 7.07 h. For the same compound, the Kp uu at 20 µM in data set [19] stood at 10.8. In addition, the half-life at 10 µM in data set [7] is 4.4 h. Moreover, the AUC at 24 h in [20] was 97.3 ng·h/mL; in data set [21] it was 15 ng·h/mL.
Compound `[2H]C([2H])([2H])N1CC[C@@]23CCCC[C@@H]2[C@@H]1Cc1ccc(C(F)(F)F)cc13` returned a CLint scaled at 2 h, 10 µM in the data set “in vitro [3]” of 15.4 mL/min/kg. In addition, the solubility at 1.5 h, 100 µM worked out at 95 µM (≈ 29.7 µg/mL) in [5] and 70 µM (≈ 21.9 µg/mL) in data set [9]. Also, the half-life at 10 µM in data set [7] came to 1.34 h.
For `[2H]C([2H])([2H])N1CC[C@@]23CCCC[C@@H]2[C@@H]1Cc1ccc(C(F)(F)C(F)(F)F)cc13` the same measures were 10 mL/min/kg, 82 µM (≈ 29.7 µg/mL), 70 µM (≈ 25.4 µg/mL) and 2.07 h.
